Experimental data: patent US10509046B2, “Detection of indazole synthetic cannabinoids” (Randox Laboratories Limited, priority 2014, dated 2019)

Test system: AB-PINACA antibody (raised against immunogen 2 of Example 6)
Experiment: AB-PINACA ELISA, final validated kit with Tracer-2 (Example 10), specificity
Format: binding
Details: AB-PINACA N-Pentanoic acid = 100
Experimental: A microtitre plates was precoated with AB-PINACA antibody (raised against immunogen 2 of Example 6). Pinaca derivative (antigen), if present in the sample competes with the horseradish peroxidase labelled AB-PINACA (enzyme labelled antigen, herein Tracer-2 of Example 8) for a limited number of antibody sites on the microtitre plate. After incubation at room temperature to allow a competition reaction to take place, the microtitre plate was washed to remove excess reagents. The enzyme substrate ([…]) was added. After an incubation period to allow maximum colour development, the colour reaction was stopped by the addition of acid. This produces a colour change from blue to yellow, and the absorbances are read at 450 nm. A standard curve was then constructed to determine the Pinaca derivative's concentration in the sample.
All reagents were left to reach room temperature (+15 to +25° C.) prior to use. In order to minimise edge effects microtitre plate was sealed with an adhesive plate sealer.
The assay was performed in duplicate. The following layout was used for a test plate where each box represents 2 wells.
• a) The following was pipetted into the appropriate wells of the microtitre plate:
• b) The microtitre plate was gently tapped plate from side to side for a few seconds. • c) The microtitre plate was covered with a plate sealer before incubating for 30 minutes at room temperature (+15 to +25° C.) in the dark. • d) The plate was inverted and the liquid was tapped out. • e) The plate was washed 6 times with diluted wash buffer (ensuring all wells were filled), over a 10-15 minute period. After the final wash the liquid was discarded and the plate was tapped onto lint free tissue paper until completely dry. • f) Immediately after washing, 125 μL of the one shot substrate II solution was pipetted into each well using a multichannel pipette. The microtitre plate was gently tapped from side to side and incubated for (20±2 minutes) at room temperature (+15 to +25° C.) in the dark. • g) The colour reaction was stopped by the addition of 100 μL of stop solution per well. A colour change from blue to yellow should be evident. • h) The optical density was measured at 450 nm within 10 minutes of stopping the colour reaction. The use of a 630 nm filter is recommended as the reference wavelength, if available. Standard Curve and Interpretation of Results • a) The mean absorbance of the standards, controls and samples were calculated. • b) The absorbances of standards against log10 (standard concentration) were plotted. • c) The control and sample concentrations were read from the standard curve. • d) To obtain concentrations for urine samples in ng/mL, the results were multiplied by 3 to take into account the dilution factor. • e) To obtain concentrations for whole blood samples in ng/mL, the results were multiplied by 4 to take into account the dilution factor. • f) It is recommended that a 4 parameter curve fit method is used when generating the standard curve. Limits of Detection

SMILES | % Cross-Reactivity [%]
CC(C)C(NC(=O)c1nn(CCCC(O)CF)c2ccccc12)C(N)=O (stereo not shown) | 24.1
CC(C)(C)C(NC(=O)c1nn(CCCCCO)c2ccccc12)C(N)=O (stereo not shown) | 15.2
CCCCCn1nc(C(=O)NC23CC4CC(CC(O)(C4)C2)C3)c2ccccc21 [3-OH AKB-48] | <1
CCCCCn1cc(C(=O)NC23CC4CC(CC(O)(C4)C2)C3)c2ccccc21 [3-OH SDB-001] | <1
CC(O)CCCn1nc(C(=O)NC(C(N)=O)C(C)C)c2ccccc21 (stereo not shown) [4-Hydroxypentyl AB-PINACA, 1-(4-hydroxypentyl) AB-Pinaca] | 85.2
CC(C)(C)C(NC(=O)c1nn(CCCCCF)c2ccccc12)C(N)=O (stereo not shown) [5-Fluoro ADB-PINACA] | 9.8
CC(C)(C)C(NC(=O)c1cn(CCCCCF)c2ccccc12)C(N)=O (stereo not shown) [5-Fluoro ADBICA] | 4.7
O=C(c1cn(CCCCCO)c2ccccc12)C12CC3CC(CC(C3)C1)C2 [AB-001 N-Pentanol] | <1
CC(C)[C@H](NC(=O)c1nn(CC2CCCCC2)c2ccccc12)C(N)=O [AB-CHMINACA] | 3.8
CC(C)C(NC(=O)c1nn(Cc2ccc(F)cc2)c2ccccc12)C(=O)O (stereo not shown) [AB-FUBINACA carboxylic acid] | 4.5
CCCCCn1nc(C(=O)NC(C(=O)O)C(C)C)c2ccccc21 (stereo not shown) [AB-PINACA carboxylic acid] | <1
CC(C)(C)C(NC(=O)c1nn(CCCCC(=O)O)c2ccccc12)C(N)=O (stereo not shown) [ADB-PINACA pentanoic acid metabolite] | 32.8
CCCCCn1cc(C(=O)NC(C(N)=O)C(C)(C)C)c2ccccc21 (stereo not shown) [ADBICA] | 0.7
CC(O)CCCn1nc(C(=O)NC23CC4CC(CC(C4)C2)C3)c2ccccc21 (stereo not shown) [AKB48 N-(4-hydroxypentyl) metabolite] | <1
O=C(NC12CC3CC(CC(C3)C1)C2)c1nn(CCCCCO)c2ccccc12 [AKB48 N-(5-hydroxypentyl) metabolite] | <1
O=C(O)CCCCn1nc(C(=O)NC23CC4CC(CC(C4)C2)C3)c2ccccc21 [AKB48 N-Pentanoic acid metabolite] | <1
CCCCCn1nc(C(=O)Nc2cccc3ccccc23)c2ccccc21 [MN-18] | <1

Same assay, conditions: negative response

SMILES | Concentration of compounds that elicit a negative response at the indicated concentration [ng/mL]
O=C(O)c1cn(CCCCCF)c2ccccc12 [5-fluoro PB-22 3-carboxyindole] | 100
O=C(Oc1cccc2cccnc12)c1cn(CCCCCF)c2ccccc12 [5-fluoro PB-22] | 100
O=C(O)CCCCn1cc(C(=O)C23CC4CC(CC(C4)C2)C3)c2ccccc21 [AB001 N-Pentanoic Acid] | 100
O=C(c1ccccc1I)c1cn(CCCCCF)c2ccccc12 [AM-694] | 100
O=C(c1cccc2ccccc12)c1cn(CCCCCF)c2cc(O)ccc12 [AM-2201 6-Hydroxyindole] | 100
O=C(c1cccc2ccccc12)c1cn(CCCCCF)c2ccccc12 [AM-2201] | 100
N#CCCCCn1cc(C(=O)c2cccc3ccccc23)c2ccccc21 [AM-2232] | 100
O=C(O)c1cn(CC2CCCCC2)c2ccccc12 [BB-22 3-Carboxyindole metabolite] | 100
O=C(Oc1cccc2cccnc12)c1cn(CC2CCCCC2)c2ccccc12 [BB-22] | 100
CC1(C)C(C(=O)c2cn(CC3CCOCC3)c3ccccc23)C1(C)C [Hapten A-834735] | 100
COc1ccccc1CC(=O)c1cn(CCCC(C)O)c2ccccc12 (stereo not shown) [JWH 250 N-(4-hydroxypentyl) metabolite] | 100
CCCCCn1c(C)c(C(=O)c2cccc3ccccc23)c2ccccc21 [JWH-007] | 100
CCCn1c(C)c(C(=O)c2cccc3ccccc23)c2ccccc21 [JWH-015] | 100
CCCCCn1cc(C(=O)c2cccc3ccccc23)c2c(O)cccc21 [JWH-018 4-Hydroxyindole] | 100
CCCCCn1cc(C(=O)c2cccc3ccccc23)c2cc(O)ccc21 [JWH-018 5-Hydroxyindole] | 100
CCCCCn1cc(C(=O)c2cccc3ccccc23)c2ccc(O)cc21 [JWH-018 6-Hydroxyindole] | 100

SMILES | Concentration of compounds that elicit a negative response at the indicated concentration [ng/mL]
O=C(c1cccc2ccccc12)c1cn(CCCCCO)c2ccccc12 [JWH-018 N-(5-Hydroxypentyl)] | 100
O=C(O)CCCCn1cc(C(=O)c2cccc3ccccc23)c2ccccc21 [JWH-018 N-Pentanoic acid] | 100
CCCCCn1cc(C(=O)c2cccc3ccccc23)c2ccccc21 [JWH-018] | 100
CCCCCCn1cc(C(=O)c2cccc3ccccc23)c2ccccc21 [JWH-019] | 100
CCCCn1cc(C(=O)c2cccc3ccccc23)c2c(O)cccc21 [JWH-073 4-Hydroxyindole] | 100
CCCCn1cc(C(=O)c2cccc3ccccc23)c2cc(O)ccc21 [JWH-073 5-Hydroxyindole] | 100
O=C(O)CCCn1cc(C(=O)c2cccc3ccccc23)c2ccccc21 [JWH-073 N-Butanoic acid] | 100
O=C(c1cccc2ccccc12)c1cn(CCCCO)c2ccccc12 [JWH-073 N-Butanol] | 100
CCCCn1cc(C(=O)c2cccc3ccccc23)c2ccccc21 [JWH-073] | 100
CCCCCn1cc(C(=O)c2ccc(OC)c3ccccc23)c2ccccc21 [JWH-081] | 100
O=C(c1cccc2ccccc12)c1cn(CCN2CCOCC2)c2ccccc12 [JWH-200] | 100
CCCCCn1cc(C(=O)Cc2ccccc2Cl)c2ccccc21 [JWH-203] | 100
CCCCCn1cc(C(=O)c2ccc(CC)c3ccccc23)c2ccccc21 [JWH-210] | 100
COc1ccccc1CC(=O)c1cn(CCCCCC(=O)O)c2ccccc12 [JWH-250 N-(5-Carboxypentyl)] | 100
COc1ccccc1CC(=O)c1cn(CCCCCO)c2ccccc12 [JWH-250 N-(5-Hydroxypentyl)] | 100
CCCCCn1cc(C(=O)c2ccc(Cl)c3ccccc23)c2ccccc21 [JWH-398] | 100
